Like-named read-outs stand apart in the source and are kept apart here.
Experiments:
LNCaP tumor-bearing mice = assay: Biodistribution in LNCaP tumor-bearing mice; conditions: LNCaP model, 48 h p.i.
[1] = system: PC-3 PIP/flu tumor-bearing mice; conditions: PC-3 PIP model, 1.0 nmol, ref Deberle et al. [21], cited from earlier work

Protocol for LNCaP tumor cells: (§1) The cells were cultured in RPMI-1640 cell culture medium supplemented with 10% fetal calf serum, L-glutamine, and antibiotics. Puromycin (2 μg/mL) was used to maintain PSMA expression as previously reported [24]. […] The cells were cultured under standard cell culture conditions in RPMI-1640 medium supplemented with 10% fetal calf serum, L-glutamine, antibiotics, and pyruvate (1 mM).
(§2) In brief, PC-3 PIP and LNCaP tumor cells were seeded in 12-well plates (3 × 10^5 cells and 1 × 10^6 cells in 2 mL medium/well, respectively) and incubated overnight. Both PSMA radioligands were applied at variable molar concentrations (0.75–500 nM) but at a constant activity concentration of 37.5 kBq/mL. The tumor cells were incubated for 4 h followed by washing steps and detachment of the cells for counting in a γ-counter (Perkin Elmer, Wallac Wizard 1480). The studies were performed in three independent experiments of six replicates. Statistical analysis was performed using a two-way ANOVA with Tukey’s and Sidak’s multiple comparison post-test in Graph Pad Prism (version 8) for different concentrations of the same radioligand and for the two radioligands at the same concentration, respectively. A p value of < 0.05 was considered statistically significant.
(§3) Both tumor cell types were kept in a humidified atmosphere at 37 °C and 5% CO2. Routine cell culture
(§4) was performed twice a week using PBS/EDTA (2 mM) and trypsin for cell detachment.
(§5) internalization of the radioligands into PC-3 PIP and LNCaP tumor cells.
(§6) Methods: Uptake and internalization studies were performed with PC-3 PIP and LNCaP tumor cells
(§7) using variable concentrations of the respective ligand but constant activity concentrations. PC-3 PIP
(§8) and LNCaP cells were seeded in 12-well plates and incubated at 37 °C and 5% CO2 overnight.
(§9) Experiments with LNCaP cells were performed with poly -L-lysine-coated well plates to ensure better
(§10) cell adherence. The radioligand solution was diluted using saline containing 0.05% bovine serum
albumin (BSA) to avoid adherence to the vial. A defined volume of 25 µL (corresponding to 37.5 kBq)
of this solution was added to the cell monolayers after the addition of 975 µL cell culture medium
without supplements. The final molar concentrations in each well ranged from 0.75 nM to 500 nM.
After incubation of the cells for 4 h, several washing steps were performed using PBS for determination
Protocol for PC-3 PIP tumor cells: as §1, §2, §3, §4, §5, §6, §7, §8, §9, §10
albumin (BSA) to avoid adherence to the vial. A defined volume of 25 µL (corresponding to 37.5 kBq) […]

## CC(C)Cc1ccc(C(C)C(=O)NC(CCN)C(=O)NCCCCC(NC(=O)CN2CCN(CC(=O)O)CCN(CC(=O)O)CCN(CC(=O)O)CC2)C(=O)NCC2CCC(C(=O)NC(Cc3ccc4ccccc4c3)C(=O)NCCCCC(NC(=O)NC(CCC(=O)O)C(=O)O)C(=O)O)CC2)cc1 (stereo not drawn) [[^177Lu]Lu-Ibu-DAB-PSMA, metal not drawn]
LNCaP tumor-bearing mice; 0.05 nmol
  Tissue distribution, Spleen: 0.31 ± 0.08 % IA/g
  Tissue distribution, Stomach: < 0.10 % IA/g
  Tumor-to-blood ratio: 155 ± 31
  Tumor-to-kidney ratio: 7.7 ± 1.7
  Tumor-to-liver ratio: 32 ± 7
LNCaP tumor-bearing mice; 1.0 nmol
  Tissue distribution, Blood: 0.09 ± 0.02 % IA/g
  Tissue distribution, Bone: < 0.10 % IA/g
  Tissue distribution, Heart: < 0.10 % IA/g
  Tissue distribution, Intestines: < 0.10 % IA/g
  Tissue distribution, Kidneys: 2.4 ± 0.5 % IA/g
  Tissue distribution, LNCaP tumor: 9.5 ± 1.1 % IA/g
  Tissue distribution, Liver: 0.57 ± 0.09 % IA/g
  Tissue distribution, Lung: 0.14 ± 0.03 % IA/g
  Tissue distribution, Muscle: < 0.10 % IA/g
  Tissue distribution, Salivary glands: < 0.10 % IA/g
  Tissue distribution, Spleen: 0.24 ± 0.04 % IA/g
  Tissue distribution, Stomach: < 0.10 % IA/g
  Tumor-to-blood ratio: 105 ± 14
  Tumor-to-kidney ratio: 4.2 ± 0.7
  Tumor-to-liver ratio: 17 ± 2
LNCaP tumor-bearing mice; 1.0 nmol, listed as [177Lu]Lu-Ibu-DAB-PSMA
  Tissue distribution, Blood: < 0.10 % IA/g
[1]; 4 h p.i.
  Tissue distribution, Blood: 3.7 ± 0.5 % IA/g
  Tissue distribution, Bone: 0.62 ± 0.08 % IA/g
  Tissue distribution, Heart: 1.3 ± 0.1 % IA/g
  Tissue distribution, Intestines: 0.71 ± 0.05 % IA/g
  Tissue distribution, Kidneys: 19 ± 2 % IA/g
  Tissue distribution, Liver: 1.5 ± 0.1 % IA/g
  Tissue distribution, Lung: 2.4 ± 0.3 % IA/g
  Tissue distribution, Muscle: 0.54 ± 0.09 % IA/g
  Tissue distribution, PC-3 PIP tumor: 66 ± 11 % IA/g
  Tissue distribution, PC-3 flu tumor: 1.2 ± 0.3 % IA/g
  Tissue distribution, Salivary glands: 0.86 ± 0.38 % IA/g
  Tissue distribution, Spleen: 1.1 ± 0.1 % IA/g
  Tissue distribution, Stomach: 0.62 ± 0.12 % IA/g
  Tumor-to-blood ratio: 18 ± 3
  Tumor-to-kidney ratio: 3.0 ± 0.5
  Tumor-to-liver ratio: 45 ± 8
[1]; 24 h p.i.
  Tissue distribution, Blood: 0.16 ± 0.02 % IA/g
  Tissue distribution, Bone: < 0.10 % IA/g
  Tissue distribution, Heart: 0.10 ± 0.01 % IA/g
  Tissue distribution, Intestines: 0.11 ± 0.03 % IA/g
  Tissue distribution, Kidneys: 6.0 ± 0.7 % IA/g
  Tissue distribution, Liver: 0.56 ± 0.10 % IA/g
  Tissue distribution, Lung: 0.21 ± 0.03 % IA/g
  Tissue distribution, Muscle: 0.05 ± 0.01 % IA/g
  Tissue distribution, PC-3 PIP tumor: 52 ± 3 % IA/g
  Tissue distribution, PC-3 flu tumor: 0.17 ± 0.01 % IA/g
  Tissue distribution, Salivary glands: 0.56 ± 0.37 % IA/g
  Tissue distribution, Spleen: 0.32 ± 0.03 % IA/g
  Tissue distribution, Stomach: 0.18 ± 0.13 % IA/g
  Tumor-to-blood ratio: 337 ± 40
  Tumor-to-kidney ratio: 8.9 ± 1.0
  Tumor-to-liver ratio: 98 ± 21
[1]; 48 h p.i.
  Tissue distribution, Blood: 0.10 ± 0.04 % IA/g
  Tissue distribution, Bone: < 0.10 % IA/g
  Tissue distribution, Heart: < 0.10 % IA/g
  Tissue distribution, Intestines: < 0.10 % IA/g
  Tissue distribution, Kidneys: 4.1 ± 0.8 % IA/g
  Tissue distribution, Liver: 0.49 ± 0.08 % IA/g
  Tissue distribution, Lung: 0.14 ± 0.04 % IA/g
  Tissue distribution, Muscle: < 0.10 % IA/g
  Tissue distribution, PC-3 PIP tumor: 36 ± 10 % IA/g
  Tissue distribution, PC-3 flu tumor: 0.15 ± 0.04 % IA/g
  Tissue distribution, Salivary glands: < 0.10 % IA/g
  Tissue distribution, Spleen: 0.26 ± 0.08 % IA/g
  Tissue distribution, Stomach: < 0.10 % IA/g
  Tumor-to-blood ratio: 364 ± 67
  Tumor-to-kidney ratio: 8.7 ± 1.8
  Tumor-to-liver ratio: 72 ± 11
PC-3 PIP tumor cells; 0.00075 µM
  Absolute amount of internalized radioligand: 14–21 % of total added activity
PC-3 PIP tumor cells; 4 h
  Internalized fraction: 23–28 % of total uptake
PC-3 PIP tumor cells; 4 h, 0.5 µM
  Cell uptake: ≤ 2%
LNCaP tumor cells; 0.00075 µM
  Absolute amount of internalized radioligand: 14–21 % of total added activity
LNCaP tumor cells; 4 h
  Internalized fraction: > 60 % of total uptake
LNCaP tumor cells; 4 h, 0.00075 µM
  Cell uptake: ~ 34%
LNCaP tumor cells; 4 h, 0.0075 µM
  Cell uptake: ~ 16%
LNCaP tumor cells; 4 h, 0.025 µM
  Cell uptake: ~ 6%
LNCaP tumor cells; 4 h, 0.5 µM
  Cell uptake: < 1%
